Data on three compounds can be found in patent US11229628B2, “TRPA1 and TRPV4 inhibitors and methods of using the same for organ-specific inflammation and itch” (Duke University, priority 2015, dated 2022).

“Also recorded” adds a separate entry of the source.

Assay type in all cases: cell-based
The target of experiment [1] is T1, human TRPV2 (Homo sapiens, UniProt Q9Y5S1).
T1 construct: expressed in transfected cells; host or cells: N2a cells
T1 sequence (Q9Y5S1 1-764): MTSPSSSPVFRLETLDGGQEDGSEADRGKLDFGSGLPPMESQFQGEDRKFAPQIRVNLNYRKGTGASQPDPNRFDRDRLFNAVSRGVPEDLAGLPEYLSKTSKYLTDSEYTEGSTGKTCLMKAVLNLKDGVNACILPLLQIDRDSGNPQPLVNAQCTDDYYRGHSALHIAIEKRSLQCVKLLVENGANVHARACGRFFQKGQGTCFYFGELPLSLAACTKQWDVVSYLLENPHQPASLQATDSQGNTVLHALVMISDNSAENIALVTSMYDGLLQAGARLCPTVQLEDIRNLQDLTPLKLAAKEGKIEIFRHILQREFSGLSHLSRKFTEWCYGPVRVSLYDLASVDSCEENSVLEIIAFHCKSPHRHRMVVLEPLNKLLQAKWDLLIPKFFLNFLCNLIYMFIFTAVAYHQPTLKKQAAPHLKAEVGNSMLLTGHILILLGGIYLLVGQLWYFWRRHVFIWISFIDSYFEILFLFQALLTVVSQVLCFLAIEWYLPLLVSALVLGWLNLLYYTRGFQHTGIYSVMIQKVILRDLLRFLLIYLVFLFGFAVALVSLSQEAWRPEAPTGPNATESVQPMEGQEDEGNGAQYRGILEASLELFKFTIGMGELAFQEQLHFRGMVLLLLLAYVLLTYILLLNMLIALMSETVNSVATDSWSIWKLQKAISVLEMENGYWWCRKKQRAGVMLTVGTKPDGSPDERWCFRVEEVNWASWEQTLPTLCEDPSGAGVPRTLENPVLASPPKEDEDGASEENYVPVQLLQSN
Put plainly: Ca2+ signal in N2a cells transfected with human TRPV2 (hypotonicity stimulation). Conditions: hypotonicity (260 mosmol/L) stimulation. As for the experimental part: (§1) Compounds were tested for their effect on TRPV1, TRPV2, and TRPV3. Methods were similar to those described in Example 15. Briefly, N2a cells were transfected with human TRPV1, TRPV2, or TRPV3. eGFP-transfection was used as control. For specific stimulation of TRPV1, 5 μM capsaicin was used. For stimulation of TRPV2, hypotonicity (260 mosmol/L) was used, based on previous reports of TRPV2 being osmotically responsive. N2a cells were not responsive to hypotonicity, and neither were control-transfected cells. For TRPV3-expressing cells, camphor (20% of a commercially available stock solution) was used. […] Stimulation and control protocols were applied as for TRPA1-expressing N2a cells as detailed above in Example 15.
(§2) For TRPV1, TRPV2, and TRPV3, Ca2+ transience was not affected by administration of 16-8 or 16-8/18hy.

For experiment [2], the target named is T2, human TRPV3 (Homo sapiens, UniProt Q8NET8).
T2 construct: expressed in transfected cells; host or cells: N2a cells
T2 sequence (Q8NET8 1-790): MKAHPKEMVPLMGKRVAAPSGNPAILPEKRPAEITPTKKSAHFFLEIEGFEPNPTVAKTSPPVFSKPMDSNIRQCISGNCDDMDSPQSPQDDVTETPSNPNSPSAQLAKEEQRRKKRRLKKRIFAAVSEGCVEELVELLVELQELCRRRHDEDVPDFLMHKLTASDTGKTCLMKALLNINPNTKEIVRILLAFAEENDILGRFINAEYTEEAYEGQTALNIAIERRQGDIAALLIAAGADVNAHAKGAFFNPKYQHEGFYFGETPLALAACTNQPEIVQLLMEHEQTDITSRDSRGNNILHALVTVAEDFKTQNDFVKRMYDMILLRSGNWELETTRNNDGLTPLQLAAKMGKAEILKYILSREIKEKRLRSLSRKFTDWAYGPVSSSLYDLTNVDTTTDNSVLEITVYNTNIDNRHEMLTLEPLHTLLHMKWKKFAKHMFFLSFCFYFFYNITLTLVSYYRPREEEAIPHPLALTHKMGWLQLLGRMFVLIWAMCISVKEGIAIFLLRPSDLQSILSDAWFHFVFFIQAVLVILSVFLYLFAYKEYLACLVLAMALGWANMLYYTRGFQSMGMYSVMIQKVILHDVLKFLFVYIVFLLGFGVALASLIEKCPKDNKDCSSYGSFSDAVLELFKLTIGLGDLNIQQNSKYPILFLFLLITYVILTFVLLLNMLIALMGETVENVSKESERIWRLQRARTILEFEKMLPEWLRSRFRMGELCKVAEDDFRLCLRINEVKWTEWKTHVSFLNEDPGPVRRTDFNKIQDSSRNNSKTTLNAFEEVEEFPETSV
Put plainly: Ca2+ signal in N2a cells transfected with human TRPV3 (camphor stimulation). As for the experimental part:
as §1, §2

Experiment [3] addresses TRPV4 (Homo sapiens, UniProt Q9HBA0). The experiment is described as follows: UVB-evoked Ca++ transient in TRPV4-transfected HEK293T cells. The following applies: pre-exposure to 20 μM GSK205. The arrangement: expressed in transfected cells; host or cells: HEK293T cells. The source says: (B) Focusing properties of the ball lens. […] (E) TRPV3 activation experiment. […] (F) TRPV4 selective activator GSK101-related findings.
To assess whether TRPV4 is sufficient for the UVB-evoked Ca++ influx, we introduced high levels of TRPV4 into HEK293 epithelial cells. TRPV4 expression endowed these cells with the ability to generate robust Ca++ signaling in response to UVB (FIG. 2G). Moreover, if they were pre-exposed to GSK205, the response was blocked. Thus, heterologous TRPV4 expression is sufficient for UVB radiation to cause a cellular Ca++ transient.

Sequence of TRPV4 (Q9HBA0 whole entry, species assumed): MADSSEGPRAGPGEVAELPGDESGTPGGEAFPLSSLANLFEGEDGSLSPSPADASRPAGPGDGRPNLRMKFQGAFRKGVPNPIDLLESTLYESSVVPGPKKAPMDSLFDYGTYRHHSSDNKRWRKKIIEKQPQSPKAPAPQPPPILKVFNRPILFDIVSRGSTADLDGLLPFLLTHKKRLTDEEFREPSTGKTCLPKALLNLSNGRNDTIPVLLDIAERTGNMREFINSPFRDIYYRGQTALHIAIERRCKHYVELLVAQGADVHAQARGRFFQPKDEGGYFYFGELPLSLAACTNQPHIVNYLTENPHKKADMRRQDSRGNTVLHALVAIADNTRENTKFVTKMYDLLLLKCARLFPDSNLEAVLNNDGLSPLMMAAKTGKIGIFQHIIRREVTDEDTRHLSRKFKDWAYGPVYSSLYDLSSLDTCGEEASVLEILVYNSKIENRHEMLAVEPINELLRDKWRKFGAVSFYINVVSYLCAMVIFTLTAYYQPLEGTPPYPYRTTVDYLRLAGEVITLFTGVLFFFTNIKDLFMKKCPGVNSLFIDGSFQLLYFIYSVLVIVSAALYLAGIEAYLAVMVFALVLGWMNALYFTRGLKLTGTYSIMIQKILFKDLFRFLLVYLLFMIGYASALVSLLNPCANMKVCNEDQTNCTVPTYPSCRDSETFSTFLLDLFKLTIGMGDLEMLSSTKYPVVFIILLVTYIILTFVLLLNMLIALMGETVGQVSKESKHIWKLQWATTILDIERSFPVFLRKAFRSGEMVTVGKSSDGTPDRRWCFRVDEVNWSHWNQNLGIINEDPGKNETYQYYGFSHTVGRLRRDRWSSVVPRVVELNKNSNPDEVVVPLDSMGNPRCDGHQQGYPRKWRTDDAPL

For the compound `CCN(CCc1ccc(Nc2nc(-c3ccccc3)cs2)cc1)Cc1ccccc1` [16-8/18hy], in experiment [1], the “Ca2+ transience, TRPV2” value is “not affected”. In addition, the “Ca2+ transience, TRPV3” value in experiment [2] is recorded as “not affected”. `CN(CCc1ccc(Nc2nc(-c3ccccc3)cs2)cc1)Cc1ccccc1` [Compound 16-8]: in experiment [1], the “Ca2+ transience, TRPV2” value is reported as “not affected”. Further, the “Ca2+ transience, TRPV3” value in experiment [2] is on record as “not affected”.

`CN(CCc1ccc(Nc2nc(-c3cccnc3)cs2)cc1)Cc1ccccc1` [GSK205]: the “UVB-evoked Ca++ signal in TRPV4-transfected HEK293T cells” value in experiment [3] is “blocked; also recorded: virtually eliminates”.
